{"source": "patent US10765690B2", "about": "“TLR4 agonists and compositions thereof and their use in the treatment of cancer” (GlaxoSmithKline Intellectual Property Development Limited, priority 2015, dated 2020)", "key": {"[1]": {"system": "Murine CT-26 colon carcinoma cells", "test": "CT-26 syngeneic colon carcinoma model, intratumoral or intravenous monotherapy (Example 10, studies 1-3)", "type": "in vivo, Balb/c mice", "experimental": "The in vivo anti-tumor efficacy of the TLR4 agonist (CRX-601) was assessed in the murine CT-26 colon carcinoma syngeneic solid tumor model as a monotherapy and in combination with […] a therapeutic antibody (combination data not shown). Seven to eight week old female Balb/c mice (BALB/cAnNCrl, Charles River) were used in these studies. Murine CT-26 colon carcinoma cells (ATCC catalog number CRL-2638 lot #59227052) were cultured in RPMI growth medium supplemented with 10% fetal bovine serum (FBS) in a humidified 37° C. incubator with 5% CO2, CT-26 cells cultured in logarithmic growth were harvested from tissue culture flasks and centrifuged for 5 minutes at 450×g at 4° C. for ten minutes to pellet cells. The supernatant was discarded, and cells were washed in ice cold phosphate buffered saline (PBS) without calcium and magnesium and centrifuged again for 5 minutes at 450×g at 4° C. for ten minutes to pellet cells. The cells were resuspended in sterile RPMI media without FBS and adjusted to a cell concentration of 500,000 cells/ml, 100 μl of the cell stock was implanted via subcutaneous injection into the right flank of each Balb/c mouse. After ten or eleven days when the average tumor size reached approximately 100 mm^3, mice were randomized into study cohorts according to tumor size and the first treatment dose was given. The TLR4 agonist (CRX-601) or vehicle was dosed via a systemic intravenous or direct intratumoral injection as indicated. The CRX-601 vehicle used for intravenous and intratumoral dosing was […] where indicated. For CRX-601 liposomal intratumoral dosing, a DOPC/CHOL liposome prepared by GSK Lot #1783-157-B was used. The therapeutic antibody was dosed via an intraperitoneal injection given twice per week for a total of six doses. Caliper measurements were taken three times per week to assess tumor growth, and mice with tumors <2,000 mm^3 were maintained on study from 30 up to approximately 115 days. Mice with tumors >2,000 mm^3 for 2 consecutive measurements or mice with tumors which formed open ulcers were removed from the study. Tumor volume was calculated using the formula (0.52)×(Length)×(Width^2). In study 3, tumor-free mice were re-challenged with CT-26 tumor cells as described above, on the opposite flank from the original inoculation site and tumor growth was monitored, as described above. All studies were conducted in accordance with the GSK Policy on the Care, Welfare and Treatment of Laboratory Animals and were reviewed by the Institutional Animal Care and Use Committee at GSK.\nFor studies 1 and 2, to determine significance of tumor growth inhibition, tumor volumes at 11 study 1) or 15 (study 2) days after first dose were compared between the different treatment groups. Prior to the analysis, tumor volumes were natural log transformed due to the inequality of variance in the different treatment groups. ANOVA followed by pair-wise comparison was then carried out on the log transformed data. SAS 9.3 and R 3.0.2 analysis software was used. Kaplan-Meier (KM) method was carried out to estimate the survival probability of different treatment groups at a given time. The event for survival analysis was tumor volume of 2000 mm^3 or tumor ulceration, whichever came first. The exact time to cut-off volume was estimated by fitting a linear line between log tumor volume and day of two observations, the first observation that exceed the cut-off volume and the one observation that immediately preceded the cut-off volume. The median time to endpoint and its corresponding 95% confidence interval was calculated. Whether or not KM survival curves were statistically different between any two groups was then tested by log-rank test. The raw p-value, as well as the false discovery rate (FDR) adjusted p-values, from the comparisons of days to events by survival analysis and the comparisons of log transformed tumor volume at indicated days between treatment groups was determined. […]"}, "CT-26 cells": {"system": "CT-26 cells", "test": "CT-26 two-flank model, abscopal effect (study 4)", "type": "in vivo, mice", "experimental": "The in vivo anti-tumor efficacy of the TLR4 agonist (CRX-601) was assessed in the murine CT-26 colon carcinoma syngeneic solid tumor model as a monotherapy and in combination with […] a therapeutic antibody (combination data not shown). Seven to eight week old female Balb/c mice (BALB/cAnNCrl, Charles River) were used in these studies. Murine CT-26 colon carcinoma cells (ATCC catalog number CRL-2638 lot #59227052) were cultured in RPMI growth medium supplemented with 10% fetal bovine serum (FBS) in a humidified 37° C. incubator with 5% CO2, CT-26 cells cultured in logarithmic growth were harvested from tissue culture flasks and centrifuged for 5 minutes at 450×g at 4° C. for ten minutes to pellet cells. The supernatant was discarded, and cells were washed in ice cold phosphate buffered saline (PBS) without calcium and magnesium and centrifuged again for 5 minutes at 450×g at 4° C. for ten minutes to pellet cells. […] Tumor volume was calculated using the formula (0.52)×(Length)×(Width^2). In study 3, tumor-free mice were re-challenged with CT-26 tumor cells as described above, on the opposite flank from the original inoculation site and tumor growth was monitored, as described above. […]\nAn abscopal effect is described as distant tumor regression after a local tumor treatment. […] Tumor size was monitored for both the right and left flank tumors. […]"}, "[2]": {"system": "CT-26 colorectal tumor cells", "test": "CT-26 syngeneic colon carcinoma model, escalating i.p. doses (Example 9)", "type": "in vivo, Balb/c mice", "conditions": "CRX-601, similar experiment; 4, 20 or 100 ug"}}, "note": "“And” between values parts separate entries of the source, which are not always exact repeats. Equal entries are not always repeated."}
{"smiles": "CCCCCCCCCCC[C@H](CC(=O)N[C@H]1[C@H](OC[C@H](NC(=O)C[C@@H](CCCCCCCCCCC)OCCCCCCCCCC)C(=O)O)O[C@H](CO)[C@@H](OP(=O)(O)O)[C@@H]1OC(=O)C[C@@H](CCCCCCCCCCC)OCCCCCCCCCC)OCCCCCCCCCC", "note": "[CRX-601]", "values": [{"measurement": "tumor status of single mouse remaining on study", "setting": "[1]; study 1, 10 ug intratumoral group, day 42", "result": "tumor-free"}, {"measurement": "tumor growth inhibition compared to vehicle", "setting": "[1]; study 1, 10 ug/mouse intratumoral twice per week, 6 doses, 11 days after the initial dose, p-values 0.05", "result": "statistically significant"}, {"measurement": "tumor-free mice among mice remaining on study", "setting": "[1]; study 1, 50 ug intratumoral group, day 42", "result": "Three of the four"}, {"measurement": "tumor volume of remaining tumor-bearing mouse", "setting": "[1]; study 1, 50 ug intratumoral group, fourth mouse, day 42", "result": 854.19, "unit": "mm^3"}, {"measurement": "increase in survival compared to vehicle", "setting": "[1]; study 1, 50 ug intratumoral single dose, by day 42 post CT26 inoculation, p-values<=0.05", "result": "statistically significant"}, {"measurement": "tumor growth inhibition compared to vehicle", "setting": "[1]; study 1, 50 ug/mouse intratumoral single dose, 11 days after the initial dose, p-values 0.05", "result": "statistically significant"}, {"measurement": "anti-tumor activity (tumor growth inhibition over time)", "setting": "[1]; study 1, intratumoral dosing 0.1, 1, 10 ug/mouse twice per week x6 or 50 ug single dose", "result": "dose-dependent anti-tumor activity"}, {"measurement": "tumor volume of single mouse remaining on study", "setting": "[1]; study 2, 10 ug intravenous group, day 32", "result": 188.0, "unit": "mm^3"}, {"measurement": "tumor growth inhibition compared to vehicle", "setting": "[1]; study 2, 10 ug/mouse intravenous twice per week, 6 doses, 15 days after the initial dose, p-values<=0.05", "result": "statistically significant"}, {"measurement": "tumor-free mice among mice remaining on study", "setting": "[1]; study 2, 100 ug intravenous group, day 32", "result": "One of the three"}, {"measurement": "tumor volumes of remaining tumor-bearing mice", "setting": "[1]; study 2, 100 ug intravenous group, day 32, individual mice", "result": "1500.49 mm^3 and 962.61 mm^3"}, {"measurement": "increase in survival compared to vehicle", "setting": "[1]; study 2, 100 ug intravenous single dose, day 32 post CT-26 inoculation, p-values<=0.05", "result": "statistically significant increase"}, {"measurement": "tumor growth inhibition compared to vehicle", "setting": "[1]; study 2, 100 ug/mouse intravenous single dose, 15 days after the initial dose, p-values<=0.05", "result": "statistically significant"}, {"measurement": "anti-tumor activity (tumor growth inhibition over time)", "setting": "[1]; study 2, intravenous dosing 1, 10 ug/mouse twice per week x6 or 100 ug single dose", "result": "dose-dependent anti-tumor activity"}, {"measurement": "CT26 tumor growth on re-challenge", "setting": "[1]; study 3, fully regressed tumor-free mice re-challenged on day 80, opposite flank, vs naive control mice", "result": "rejected with no tumor growth"}, {"measurement": "mice showing full tumor regressions", "setting": "[1]; study 3 Group 2, 25 ug/mouse IV once per week x3", "result": "5 out of 10"}, {"measurement": "increase in survival compared to control Group 1", "setting": "[1]; study 3 Group 2, 25 ug/mouse IV once per week x3, 80 days after the first dose, p-values<=0.05", "result": "statistically significant"}, {"measurement": "tumor growth inhibition compared to control Group 1", "setting": "[1]; study 3 Group 2, 25 ug/mouse intravenous in 0.5% Glycerol/4% dextrose once per week x3 (+Rat IgG1), 12 days after the initial dose, p-values<=0.05", "result": "statistically significant"}, {"measurement": "increase in survival compared to control Group 5", "setting": "[1]; study 3 Group 7, 25 ug/mouse intratumoral DOPC/CHOL liposome once per week x3, 80 days after the first dose, p-values<=0.05", "result": "statistically significant"}, {"measurement": "tumor growth inhibition compared to control Group 5", "setting": "[1]; study 3 Group 7, 25 ug/mouse intratumoral in DOPC/CHOL liposome once per week x3 (+Rat IgG1), 12 days after the initial dose, p-values<=0.05", "result": "statistically significant"}, {"measurement": "survival benefit compared to the control group", "setting": "CT-26 cells; study 4, liposomal CRX-601 IT 25 ug/mouse, vs blank liposome + rat IgG1, p=0.011", "result": "significant survival benefit"}, {"measurement": "abscopal effect on untreated distant tumor", "setting": "CT-26 cells; study 4 group 2, left flank tumor IT injection, liposomal 25 ug/mouse, right flank tumor untreated, mouse #4 and #6", "result": "distant right flank tumor regression"}, {"measurement": "tumor growth", "setting": "[2]", "result": "inhibited tumor growth"}]}
